The values below come from patent US20220204491A1, “FXR (NR1H4) MODULATING COMPOUNDS” (Gilead Sciences, Inc., priority 2019, published 2022).

The assay deals with Farnesoid X receptor. The experiment in a line: In vivo pharmacodynamics in cynomolgus monkey: plasma FGF19 after oral versus IV dosing. As to conditions: for FGF19 levels compared to baseline: IV administration; for FGF19 levels compared to baseline / plasma FGF19 over the dosing interval compared to baseline: cynomolgus monkey; for FGF19 AUClast: male cynomolgus monkey, plasma, 24 hour period; for Ratio AUClast to FG19/GS: FGF19 AUClast over drug AUClast; for PO/IV: PO ratio (FGF19/GS AUClast) over IV ratio; for plasma FGF19 over the dosing interval compared to baseline: oral administration. The method, then:
In vivo pharmacodynamics of Formula (I) of Example 1, Comparative Example 1, and Comparative Example 2 were determined as follows.
Oral solution doses of Formula (I) (Example 1) were formulated at concentrations of 1 mg/mL in aqueous suspensions of 1% sodium laurel sulfate (SLS), 1% ethanol, and 98% water at pH 2. Oral suspension doses of Comparative Example 1, and Comparative Example 2 were formulated at concentrations of 2.5 mg/mL in 1% hydyroxypropyl methylcellulose (HPMC), 0.5% Tween 80, and 98.5% water.
Intravenous doses of compounds of Formula (I) (Example 1), Comparative Example 1, and Comparative Example 2 were formulated at concentrations of 0.5 mg/mL in a vehicle including 5% DMSO, 15% NMP, 60% PEG 300 and water with 1.1 equivalents of NaOH.
Each dosing group consisted of three to six male Cynomolgus monkeys. At dosing, the animals weighed between 2.4 and 4.4 kg.
The oral test articles were administered to the monkeys via oral gavage at 2 mL/kg or nasogastric untubation at 5 mL/kg for a dose of 5 mg/kg. The intravenous test articles were administered as an approximately 30-minute infusion via an indwelling catheter in a saphenous or cephalic vein at approximately 2 mL/kg for a dose of 1 mg/kg.
Venous blood samples were taken at specified time points after dosing from each animal. The blood samples were collected and transferred into tubes containing potassium (K2) EDTA anticoagulant.
The FGF19 ELISA assay kit from BioVendor (product number RD191107200R) was used to determine FGF19 concentrations in the collected blood samples.
Activation of the Farnesoid X receptor in the distal small intestine as well as systemically in organs such as the liver, directly causes the expression and secretion of FGF19. Plasma FGF levels were evaluated as a pharmacodynamics marker of FXR activation in male cynomolgus monkeys following administration of oral and intravenous administration of doses of Example 1, Comparative Example 1, or Comparative Example 2. The difference between levels of FGF19 following oral administration (PO) versus intravenous administration (IV) were used to compare the degree of intestinal FXR agonism (via analysis of PO data) and systemic FXR agonism (via analysis of IV data) for each compound administered. Plasma levels of drug and FGF19 were measured at various time points over a 24 hour period to generate pharmacokinetic and pharmacodynamics curves.

With `O=C(O)c1ccc(N2CC(O)(c3ccc(OCc4c(-c5c(Cl)cccc5Cl)noc4C4CC4)cc3Cl)C2)nc1` [Comparative Example 2], the PO/IV is listed as 8.2. Also, the “FGF19 levels compared to baseline” value (1 mg/kg) is on record as “increased FGF19 levels”. Moreover, the “FGF19 AUClast” value (IV infusion, 1 mg/kg) amounted to 10757 ± 2551 pg·h/mL. Moreover, the “Ratio AUClast to FG19/GS” value (IV, 1 mg/kg) was 3.4. Further, under “PO, 5 mg/kg”, the “FGF19 AUClast” value was 18193 ± 7134 pg·h/mL and the “Ratio AUClast to FG19/GS” value was 28. Also, the “plasma FGF19 over the dosing interval compared to baseline” value (5 mg/kg) is on record as “caused increases in plasma FGF19”.

Regarding `O=C(O)c1cnc(N2CC(O)(c3ccc(OCc4c(-c5c(Cl)cc(F)cc5Cl)noc4C4CC4)cc3Cl)C2)c(F)c1` [Comparative Example 1, 6-(3-(2-chloro-4-((5-cyclopropyl-3-(2,6-dichloro-4-fluorophenyl)isoxazol-4-yl)methoxy)phenyl)-3-hydroxyazetidin-1-yl)-5-fluoronicotinic acid], the PO/IV is on record as 1.37. Moreover, under “1 mg/kg”, the “FGF19 levels compared to baseline” value is “increased FGF19 levels”. For the same compound, the “FGF19 AUClast” value (IV infusion, 1 mg/kg) stood at 22798 ± 2387 pg·h/mL. The “Ratio AUClast to FG19/GS” value (IV, 1 mg/kg) was 14. Further, under “PO, 5 mg/kg”, the “FGF19 AUClast” value was 32085 ± 4252 pg·h/mL and the “Ratio AUClast to FG19/GS” value is listed as 19.2. Also, the “plasma FGF19 over the dosing interval compared to baseline” value (5 mg/kg) was “caused increases in plasma FGF19”.

Regarding `O=C(O)c1ccc(N2CC(O)(c3ccc(OCc4c(-c5c(Cl)cc(F)cc5Cl)noc4C4CC4)cc3Cl)C2)nc1` [Example 1, 6-(3-(2-chloro-4-((5-cyclopropyl-3-(2,6-dichloro-4-fluorophenyl)isoxazol-4-yl)methoxy)phenyl)-3-hydroxyazetidin-1-yl)nicotinic acid], the PO/IV worked out at 7.8. Under “1 mg/kg”, the “FGF19 levels compared to baseline” value is on record as “did not cause in increase in FGF19”. For the setting “IV infusion, 1 mg/kg”, the “FGF19 AUClast” value came out at 5144 ± 2199 pg·h/mL. Moreover, the “Ratio AUClast to FG19/GS” value (IV, 1 mg/kg) turned out to be 1.6. For the same compound, where the note is “PO, 5 mg/kg”, the “FGF19 AUClast” value stood at 28153 ± 11539 pg·h/mL and the “Ratio AUClast to FG19/GS” value was 12.5. Moreover, the “plasma FGF19 over the dosing interval compared to baseline” value (5 mg/kg) was “caused increases in plasma FGF19”.
